Measurements taken from patent US7868204B2, “Inhibitors of histone deacetylase” (MethylGene Inc., priority 2001, dated 2011).
Read-outs that look alike come from different tables or passages of the source.

Tests used:
[1] = test system: acetylated histone H-4 in T24 human bladder cancer cells; test: Histone H4 acetylation in whole cells by immunoblots; assay type: cell-based; conditions: 16 h
Outline: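 T24 cells were treated with HDAC inhibitors for 16 h; […] total histone protein was resolved by SDS/PAGE and immunoblotted with polyclonal anti-acetylated H4 antibody. ECL detection, with signal quantified by densitometry.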

[2] = biological target: T1, cloned recombinant human HDAC-1 (Homo sapiens, UniProt Q13547); test: Human HDAC-1 enzyme inhibition, Assay 1 ([3H]-acetylated histone substrate, scintillation counting); assay type: biochemical
T1 construct: made in house; host or cells: Baculovirus insect cell expression system
T1 sequence (Q13547 whole entry): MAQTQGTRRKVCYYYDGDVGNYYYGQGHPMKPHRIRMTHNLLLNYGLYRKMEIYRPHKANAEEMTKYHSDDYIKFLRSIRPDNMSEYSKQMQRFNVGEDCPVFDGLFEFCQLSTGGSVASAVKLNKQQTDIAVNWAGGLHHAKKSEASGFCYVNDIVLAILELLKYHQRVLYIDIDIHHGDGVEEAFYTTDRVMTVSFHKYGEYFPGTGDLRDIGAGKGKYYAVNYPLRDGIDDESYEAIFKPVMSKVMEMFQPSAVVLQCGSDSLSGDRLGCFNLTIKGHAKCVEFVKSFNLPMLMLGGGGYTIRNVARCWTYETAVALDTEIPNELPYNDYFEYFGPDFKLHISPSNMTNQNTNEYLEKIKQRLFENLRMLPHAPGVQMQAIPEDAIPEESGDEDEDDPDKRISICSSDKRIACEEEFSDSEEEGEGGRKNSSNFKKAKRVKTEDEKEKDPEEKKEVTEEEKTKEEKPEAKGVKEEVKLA
Outline: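 Recombinant human HDAC-1 from baculovirus-infected insect cells, preincubated with compound 30 min at 4° C. before reaction. Released [3H]-acetic acid extracted with ethyl acetate and counted by scintillation. IC50 taken from dose-response curves as concentration giving half-maximal inhibition.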

[3] = test system: HCT116 cells; test: MTT assay; assay type: cell-based; conditions: Homo sapiens, HCT116 cells, 72 hours
Outline: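 Cells plated one day before dosing, then exposed to compound 72 h at 37 °C, 5% CO2. MTT at 0.5 mg/ml final for 4 h, solubilized in DMF/SDS buffer pH 4.7; OD converted to cell number from a standard growth curve.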

[4] = T-24, Table 5F, read-out: H4 Ac (T24) EC50
[5] = Table 5F, read-out: Human HDAC-1 IC50
[6] = T-24, Table 5d, read-out: H4Ac(T24) EC50
[7] = Table 5d, read-out: HDAC-1 IC50
[8] = T-24, Table 5E, read-out: H4 Ac (T24) EC50
[9] = Table 5E, read-out: Human HDAC-1 IC50

| Compound | EC50 [1, 4] | IC50 [2, 5] | IC50 ([3]; HCT-116, 72 h, Table 5F) | also measured |
| --- | --- | --- | --- | --- |
| Cc1cc(Cl)nc(NCc2ccc(C(=O)Nc3ccccc3N)cc2)n1 [Cpd 418, N-(2-Amino-phenyl)-4-[(4-chloro-6-methyl-pyrimidin-2-ylamino)-methyl]-benzamide] | 2 µM | 3 µM | 0.9 µM |  |
| COc1cc(OC)nc(NCc2ccc(/C=C/C(=O)Nc3ccccc3N)cc2)n1 [Cpd 492, N-(2-Amino-phenyl)-3-{4-[(4,6-dimethoxy-pyrimidin-2-ylamino)-methyl]-phenyl}-acrylamide] |  |  |  | EC50 [1, 6]: 10 µM; IC50 [2, 7]: 4 µM; IC50 ([3]; HCT-116, Table 5d): 9 µM |
| Nc1ccccc1NC(=O)c1ccc(Cn2cnc3ccc(Cl)cc3c2=O)cc1 [Cpd 336] | < 1 µM | 1 µM | 0.4 µM |  |
| Nc1ccccc1NC(=O)c1ccc(NCc2ccc(OC(F)(F)F)cc2)cc1 [Cpd 426, N-(2-Amino-phenyl)-4-(4-trifluoromethoxy-benzylamino)-benzamide] | 10 µM | 2 µM | 1 µM |  |
| Nc1ccccc1NC(=O)c1ccc(Cn2nnc3ccccc3c2=O)cc1 [Cpd 155, N-(2-Amino-phenyl)-4-(4-oxo-4H-benzo[d][1,2,3]triazin-3-ylmethyl)-benzamide] |  |  |  | EC50 [1, 8]: 1 µM; IC50 [2, 9]: 0.4 µM; IC50 ([3]; HCT-116, 72 h, Table 5E): 0.4 µM |
| Nc1ccccc1NC(=O)/C=C/c1ccc(NCc2cccc(C(F)(F)F)c2)nc1 [Cpd 101, N-(2-aminophenyl)-3-[6-(3-trifluoromethyl-benzylamino)-pyridin-3-yl]-acrylamide] |  |  |  | EC50 ([1]; T-24, Table 5c, read-out: H4Ac (T24) EC50): 5 µM; IC50 ([2]; Table 5c, read-out: Human HDAC-1 IC50): 3 µM; IC50 ([3]; HCT-116, 72 h, Table 5c): 0.9 µM |
| COCCN1C(=O)c2ccc(NCc3ccc(C(=O)Nc4ccccc4N)cc3)cc2C1=O [Cpd 458, N-(2-Amino-phenyl)-4-([2-(2-methoxy-ethyl)-1,3-dioxo-2,3-dihydro-1H-isoindol-5-ylamino]-methyl}-benzamide] | 2 µM | 3 µM | 0.3 µM |  |
| Nc1ccccc1NC(=O)c1ccc(CNc2ncccn2)cc1 [Cpd 377] | 3 µM | 4 µM | 2 µM |  |
| Nc1ccccc1NC(=O)c1ccc(NCc2ccc(F)cc2)cc1 [Cpd 413, N-(2-Amino-phenyl)-4-(4-fluoro-benzylamino)-benzamide] | 3 µM | 2 µM | 2 µM |  |
| Cn1ccnc1SCc1ccc(C(=O)Nc2ccccc2N)cc1 [Cpd 139, N-(2-Amino-phenyl)-4-(1-methyl-1H-imidazol-2-ylsulfanylmethyl]-benzamide] |  |  |  | EC50 [1, 8]: 5 µM; IC50 [2, 9]: 3 µM; IC50 ([3]; HCT-116, 72 h, Table 5E): 3 µM |
| Nc1ccccc1NC(=O)c1ccc(CNc2ccc3c(c2)OCO3)cc1 [Cpd 428, N-(2-Amino-phenyl)-4-(benzo[1,3]dioxol-5-ylaminomethyl)-benzamide] | 1 µM | 0.7 µM | 0.7 µM |  |
| COc1ccc(N(Cc2ccc(C(=O)Nc3ccccc3N)cc2)C(=O)Nc2ccc(SC)cc2)cc1OC [compound 317, N-(2-Aminophenyl)-4-[1-(3,4-dimethoxyphenyl)-3-(4-methylsulfanylphenyl)-ureidomethyl]-benzamide] | 1 µM | 2 µM | 0.3 µM |  |
| Nc1ccccc1NC(=O)c1ccc(CSc2ncc[nH]2)cc1 [Cpd 327, N-(2-Amino-phenyl)-4-(1H-imidazol-2-ylsulfanylmethyl)-benzamide] | 3 µM | 2 µM | 5 µM |  |
| Nc1ccccc1NC(=O)c1ccc(-c2ncc[nH]2)cc1 [Cpd 249] | 2 µM | 4 µM | 1 µM |  |
| Nc1ccccc1NC(=O)c1ccc(-c2ccc(CNCc3ccccn3)s2)cc1 [Cpd 466] | 1 µM | 3 µM | 2 µM |  |
| CSc1ccc(NCc2ccc(/C=C/C(=O)Nc3ccccc3N)cc2)cc1 [Cpd 556, N-(2-Amino-phenyl)-3-{4-[(4-methylsulfanyl-phenylamino)-methyl]-phenyl}acrylamide] |  |  |  | EC50 [1, 6]: 15 µM; IC50 [2, 7]: 1 µM; IC50 ([3]; HCT-116, Table 5d): 0.4 µM |
| COc1ccc(N(Cc2ccc(C(=O)Nc3ccccc3N)cc2)C(=O)Nc2ccccc2)cc1OC [Cpd 373, N-(2-Amino-phenyl)-4-[1-(3,4-dimethoxy-phenyl)-3-phenyl-ureidomethyl]-benzamide] | 1 µM | 4 µM | 0.4 µM |  |
| Nc1ccccc1NC(=O)c1ccc(CN2C(=O)CSc3ccccc32)cc1 [Cpd 363, N-(2-Amino-phenyl)-4-(3-oxo-2,3-dihydro-benzo[1,4]thiazin-4-ylmethyl)-benzamide] | 3 µM | 1 µM | 0.3 µM |  |

| Compound | EC50 [1, 4] | IC50 [2, 5] | IC50 ([3]; HCT-116, 72 h, Table 5F) | also measured |
| --- | --- | --- | --- | --- |
| COc1cc2ncn(Cc3ccc(C(=O)Nc4ccccc4N)cc3)c(=O)c2cc1OC [Cpd 338, N-(2-Amino-phenyl)-4-(6,7-dimethoxy-4-oxo-4H-quinazolin-3-ylmethyl)-benzamide] | 3 µM | 2 µM | 0.5 µM |  |
| Nc1ccccc1NC(=O)c1ccc(CNc2cccc(F)n2)cc1 [Cpd 349] | 3 µM | 13 µM | 1 µM |  |
| CC(=O)Nc1sc(Cc2ccc(C(=O)Nc3ccccc3N)cc2)c(C)c1C#N [compound 281, N-(2-Amino-phenyl)-4-(5-acetylamino-4-cyano-3-methyl-thiophen-2-ylmethyl)-benzamide] | 1 µM | 0.5 µM | 0.6 µM |  |
| Nc1ccccc1NC(=O)c1ccc(CSc2nc3ccc(NCCN4CCOCC4)cc3s2)cc1 [Cpd 128, N-(2-Amino-phenyl)-4-[6-(2-morpholin-4-yl-ethylamino)-benzothiazol-2-ylsulfanylmethyl]-benzamide] |  |  |  | EC50 [1, 8]: 5 µM; IC50 [2, 9]: 1 µM; IC50 ([3]; HCT-116, 72 h, Table 5E): 0.3 µM |
| COc1cccc(-c2ccc(C(=O)Nc3ccccc3N)cc2)c1 [Cpd 166] |  |  |  | EC50 [1, 8]: 5 µM; IC50 [2, 9]: 2 µM; IC50 ([3]; HCT-116, 72 h, Table 5E): 5 µM |
| COc1ccc(NC(=O)N(Cc2ccc(C(=O)Nc3ccccc3N)cc2)c2ccc(OC)c(OC)c2)cc1OC [Cpd 371, N-(2-Amino-phenyl)-4-[1,3-bis-(3,4-dimethoxy-phenyl)-ureidomethyl]-benzamide] | 2 µM | 4 µM | 0.5 µM |  |
| Nc1ccccc1NC(=O)c1ccc(CC2Oc3ccccc3NC2=O)cc1 (stereo not drawn) [compound 270, N-(2-Amino-phenyl)-4-(3-oxo-3,4-dihydro-2H-benzo[1,4]oxazin-2-ylmethyl)-benzamide] | 5 µM | 4 µM | 1 µM |  |
| Cc1cc(C)nc(NCc2ccc(C(=O)Nc3ccccc3N)cc2)c1 [Cpd 383, N-(2-Amino-phenyl)-4-[(4,6-dimethyl-pyridin-2-ylamino)-methyl]-benzamide] | 2 µM | 2 µM | 0.5 µM |  |
| Nc1ccccc1NC(=O)c1ccc(Cn2cnc3ccc(Br)cc3c2=O)cc1 [Cpd 346, N-(2-Amino-phenyl)-4-(6-bromo-4-oxo-4H-quinazolin-3-ylmethyl)-benzamide] | < 1 µM | 3 µM | 0.5 µM |  |
| Cc1nc2ccccc2c(=O)n1Cc1ccc(C(=O)Nc2ccccc2N)cc1 [Cpd 337, N-(2-Amino-phenyl)-4-(2-methyl-4-oxo-4H-quinazolin-3-ylmethyl)-benzamide] | 1 µM | 3 µM | 0.6 µM |  |
| Nc1ccccc1NC(=O)c1ccc(Cn2nnc3ccc(Br)cc3c2=O)cc1 [Cpd 347, N-(2-Amino-phenyl)-4-(6-bromo-4-oxo-4H-benzo[d][1,2,3]triazin-3-ylmethyl)-benzamide] | 2 µM | 2 µM | 0.6 µM |  |
| COc1ccc2nc(SCc3ccc(C(=O)Nc4ccccc4N)cc3)[nH]c2c1 [compound 376, N-(2-Amino-phenyl)-4-(5-methoxy-1H-benzimidazol-2-yl-sulfanylmethyl)-benzamide] | 1 µM | 3 µM | 0.1 µM |  |
| Nc1ccccc1NC(=O)c1ccc(Cc2nc(CN3CCOCC3)cs2)cc1 [Cpd 252] | 2 µM | 8 µM | 1 µM |  |
| COc1ccc2[nH]c(SCc3ccc(C(=O)Nc4cscc4N)cc3)nc2c1 [Cpd 575, N-(4-Amino-thiophen-3-yl)-4-(5-methoxy-1H-benzoimidazol-2-ylsulfanyl-methyl)-benzamide] | 1 µM | 2 µM | 0.2 µM |  |
| COc1ccc(N(Cc2ccc(C(=O)Nc3ccccc3N)cc2)C(=O)Nc2ccc(Cl)cc2)cc1OC [Cpd 372, N-(2-Amino-phenyl)-4-[3-(4-chloro-phenyl)-1-(3,4-dimethoxy-phenyl)-ureidomethyl]-benzamide] | 1 µM | 2 µM | 0.2 µM |  |
| Nc1ccccc1NC(=O)c1ccc(NCc2nc3ccccc3[nH]2)cc1 [Cpd 334] | 1 µM | 8 µM | 0.2 µM |  |
| CSc1ccc(NCc2ccc(C(=O)Nc3ccccc3N)cc2)cc1 [Cpd 437] | 1 µM | 3 µM | 0.4 µM |  |
| Nc1nc(NCc2ccc(C(=O)Nc3ccccc3N)cc2)nc(N2Cc3ccccc3C2)n1 [Cpd 28] |  |  |  | EC50 ([1]; T-24, Table 5a, read-out: H4Ac (T24) EC50): 1 µM; IC50 ([2]; Table 5a, read-out: Human HDAC-1 IC50): 2 µM; IC50 ([3]; HCT-116, 72 h, Table 5a): 0.5 µM |
